The source of these data is patent US8778954B2, “Phenylpyridine derivative and medicinal agent comprising same” (Kowa Company, Ltd., priority 2009, dated 2014).

By EC50 is commonly meant the concentration at which the effect is half-maximal.

The target in this experiment is T1, human PPARγ2 (Homo sapiens, UniProt P37231).
T1 construct: the amino acids 182 to 505 of human PPARγ2; expressed in transfected cells; host or cells: COS7 cells (African green monkey kidney)
T1 sequence (P37231 182-505): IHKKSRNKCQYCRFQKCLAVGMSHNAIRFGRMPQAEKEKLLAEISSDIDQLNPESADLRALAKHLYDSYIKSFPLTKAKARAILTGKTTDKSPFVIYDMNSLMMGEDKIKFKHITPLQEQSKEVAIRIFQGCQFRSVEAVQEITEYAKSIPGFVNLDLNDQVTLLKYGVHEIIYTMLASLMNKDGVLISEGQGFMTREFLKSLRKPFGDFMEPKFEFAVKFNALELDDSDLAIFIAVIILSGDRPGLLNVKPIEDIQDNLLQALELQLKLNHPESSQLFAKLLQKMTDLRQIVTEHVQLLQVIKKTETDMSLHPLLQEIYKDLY
As to the kind of experiment: PPARγ activation activity, Gal4-PPARγ2 LBD luciferase transfection assay using COS7 cells. The class given is cell-based. The note with it: Gal4-human PPARγ2 LBD chimera, 16 hours, rosiglitazone = 100%. The procedure:
The agonistic activity of the compounds of the invention on PPARγ was measured based on the transfection assay using COS7 cells (DS Pharma Biomedical Co., Ltd., Osaka, Japan), which are the cell line derived from the kidney of the African green monkey. COS7 cells were cultured under 5% CO2 concentration, and DMEM medium containing 10% fetal bovine serum, glutamic acid, and antibiotics was used as a medium.
As an expression vector, a chimera in which DNA binding domain of Gal4, which is a yeast transcription factor, and ligand binding domain of human PPARγ2 are fused, i.e., a fused product between the amino acids 1 to 147 of Gal4 transcription factor and the amino acids 182 to 505 of human PPARγ2, was used. Furthermore, as a reporter vector, a firefly luciferase containing five copies of Gal4 recognition sequence in the promoter region was used. Plasmid transfection to the cells was performed according to a method which uses jetPEI (trade name, manufactured by Funakoshi Co., Ltd., Tokyo, Japan). Furthermore, β-galactosidase expression vector was employed as an internal standard.
After the transfection of the cells, the medium was replaced with a DMEM medium (containing 1% serum) added with the test compound, and the cells were further cultured for 16 hours. After that, the luciferase activity and β-galactosidase activity in the cell lysis solution were measured.
For the present test, dimethyl sulfoxide (DMSO) was used for dissolution and dilution of the test compounds, and during the cell treatment, the DMSO concentration in DMEM medium (containing 1% serum) was adjusted to 0.1%. As a positive compound, rosiglitazone (trade name, manufactured by ALEXIS Corporation, Switzerland) was used. The luciferase activity (%) of the test compounds (1 to 30 μmol/L) was calculated when the luciferase activity of rosiglitazone (3 to 10 μmol/L) is 100% and the luciferase activity in the absence of the test compound is 0%. The 50% effective concentration of the test compound (EC50, 50% effect concentration) was calculated by using SAS Preclinical Package Ver 5.0 (trade name, manufactured by SAS institute Japan Co., Tokyo, Japan), which is a statistical analysis program.
EC50 values of these compounds are described in Table 2. […] Under the same condition, the PPARγ activation activity of telmisartan, i.e., EC50, was 1 to 5 μM.

Consider `CCCCc1nc(C(C)C)n(-c2ncc(OCC)cn2)c(=O)c1Cc1ccc(-c2ccccc2-c2nnn[nH]2)nc1` [Example 6, 5-{{6-[2-(1H-tetrazol-5-yl)phenyl]pyridin-3-yl}methyl}-6-butyl-3-(5-ethoxypyrimidin-2-yl)-2-isopropylpyrimidin-4(3H)-one], for which the EC50 is 1.36 µM. That is a single-digit micromolar value.
As for `CCCCc1nc(CC)n(-c2ncc(OC)cn2)c(=O)c1Cc1ccc(-c2ccccc2-c2noc(=O)[nH]2)nc1` [Example 18, 3-{2-{5-{[4-butyl-2-ethyl-1-(5-methoxypyrimidin-2-yl)-6-oxo-1,6-dihydropyrimidin-5-yl]methyl}pyridin-2-yl}phenyl}-1,2,4-oxadiazol-5(4H)-one], a half-maximal effect (EC50) was put at 3.39 µM.
The compound `CCCCc1nc(CC)n(-c2ncc(OCC)cn2)c(=O)c1Cc1ccc(-c2ccccc2-c2noc(=O)[nH]2)nc1` [Example 19, 3-{2-{5-{[4-butyl-1-(5-ethoxypyrimidin-2-yl)-2-ethyl-6-oxo-1,6-dihydropyrimidin-5-yl]methyl}pyridin-2-yl}phenyl}-1,2,4-oxadiazol-5(4H)-one] came in with an EC50 of 1.5 µM.
The figure for `CCCCc1nc(C(C)C)n(-c2ncc(OC)cn2)c(=O)c1Cc1ccc(-c2ccccc2-c2noc(=O)[nH]2)nc1` [Example 20, 3-{2-{5-{[4-butyl-2-isopropyl-1-(5-methoxypyrimidin-2-yl)-6-oxo-1,6-dihydropyrimidin-5-yl]methyl}pyridin-2-yl}phenyl}-1,2,4-oxadiazol-5(4H)-one] is 0.85 µM.
`CCCCc1nc(C2CCC2)n(-c2ncc(OC)cn2)c(=O)c1Cc1ccc(-c2ccccc2-c2noc(=O)[nH]2)nc1` [Example 24, 3-{2-{5-{[4-butyl-2-cyclobutyl-1-(5-methoxypyrimidin-2-yl)-6-oxo-1,6-dihydropyrimidin-5-yl]methyl}pyridin-2-yl}phenyl}-1,2,4-oxadiazol-5(4H)-one] showed an EC50 of 1.46 µM.
On to `CCCCc1nc(C2CCC2)n(-c2ncc(OCC)cn2)c(=O)c1Cc1ccc(-c2ccccc2-c2noc(=O)[nH]2)nc1` [Example 25, 3-{2-{5-{[4-butyl-2-cyclobutyl-1-(5-ethoxypyrimidin-2-yl)-6-oxo-1,6-dihydropyrimidin-5-yl]methyl}pyridin-2-yl}phenyl}-1,2,4-oxadiazol-5(4H)-one], for which the EC50 is 0.82 µM.
As to `CCCCc1nc(C2CCCC2)n(-c2ncc(OCC)cn2)c(=O)c1Cc1ccc(-c2ccccc2-c2noc(=O)[nH]2)nc1` [Example 26, 3-{2-{5-{[4-butyl-2-cyclopentyl-1-(5-ethoxypyrimidin-2-yl)-6-oxo-1,6-dihydropyrimidin-5-yl]methyl}pyridin-2-yl}phenyl}-1,2,4-oxadiazol-5(4H)-one], the EC50 was determined as 0.38 µM.
The figure for `CCCCc1nc(C2CCCCC2)n(-c2ncc(OCC)cn2)c(=O)c1Cc1ccc(-c2ccccc2-c2noc(=O)[nH]2)nc1` [Example 27, 3-{2-{5-{[4-butyl-2-cyclohexyl-1-(5-ethoxypyrimidin-2-yl)-6-oxo-1,6-dihydropyrimidin-5-yl]methyl}pyridin-2-yl}phenyl}-1,2,4-oxadiazol-5(4H)-one] is 0.67 µM; for `CCCCc1nc(C)n(-c2ncc(C(F)(F)F)cc2Cl)c(=O)c1Cc1ccc(-c2ccccc2-c2nnn[nH]2)cn1` [Example 32, 5-{{5-[2-(1H-tetrazol-5-yl)phenyl]pyridin-2-yl}methyl}-6-butyl-3-[3-chloro-5-(trifluoromethyl)pyridin-2-yl]-2-methylpyrimidin-4(3H)-one] it is 2.74 µM.
